Measured values reported in US12497365B2, “4-pyridinyl formamide compound or derivative thereof, preparation method therefor, herbicidal composition and use thereof” (Qingdao Kingagroot Chemical Compound Co., Ltd., priority 2019, dated 2025).

tested on: Abutilon theophrasti; assay: Weeding effect in post-emergence stage; assay type: in vivo; conditions: active ingredient 2000 g/ha, 3 weeks after application, fresh weight control rate
Text: (§1) The activity level criteria for plant damage (i.e., growth control rate) are as follows:
(§2) The above growth control rates are fresh weight control rates.
(§3) Experiment on weeding effect in post-emergence stage: monocotyledonous and dicotyledonous weed seeds and major crop seeds (wheat, corn, rice, soybean, cotton, oilseed rape, millet, sorghum) were placed in plastic pots filled with soil, then covered with 0.5-2 cm of soil, allowed to grow in a good greenhouse environment. After 2 weeks of sowing, the test plants were treated in the 2-3 leaf stage. The tested compounds of the present invention were respectively dissolved in acetone at the dosage of 2000, 1000, 500, 250, 125 g/ha, then added with Tween 80 and 1.5 liter/ha of emulsifiable concentrate of methyl oleate as synergist, diluted with a certain amount of water to obtain a solution with a certain concentration, and sprayed with a spray tower onto the plants. After the application, the plants were cultured for 3 weeks in the greenhouse, and then the experimental results were listed in Table 1.

Structure (SMILES) | Weeding effect, activity level (growth control rate), Abutilon theophrasti
CCc1ccc(-c2ccc(-c3nccc(C(=O)Nc4nnnn4C)c3Cl)cc2)cc1 [Compound 1-54] | 5 (Level 5: growth control rate is above 85%)
Cn1nnnc1NC(=O)c1ccnc(-c2ccco2)c1Cl [Compound 1-184] | 5 (Level 5: growth control rate is above 85%)
Cn1nnnc1NC(=O)c1ccnc(-c2ccc(S(=O)(=O)N3CCOCC3)cc2)c1Cl [Compound 1-46] | 5 (Level 5: growth control rate is above 85%)
Cn1nnnc1NC(=O)c1ccnc(-c2cc(Cl)nc(Cl)c2)c1Cl [Compound 1-153] | 5 (Level 5: growth control rate is above 85%)
Cn1nnnc1NC(=O)c1ccnc(-c2ccc(F)nc2F)c1Cl [Compound 1-135] | 5 (Level 5: growth control rate is above 85%)
COC(C)c1c(C(=O)Nc2nnnn2C)ccnc1-c1ccc(F)cc1 (stereo not drawn) [Compound 1-215] | 5 (Level 5: growth control rate is above 85%)
Cn1nnnc1NC(=O)c1ccnc(-c2cc(C(F)(F)F)cc(C(F)(F)F)c2)c1Cl [Compound 1-77] | 5 (Level 5: growth control rate is above 85%)
Cn1nnnc1NC(=O)c1ccnc(-c2ncc(F)cn2)c1Cl [Compound 1-164] | 5 (Level 5: growth control rate is above 85%)
Cn1ccnc1-c1nccc(C(=O)Nc2nnnn2C)c1Cl [Compound 1-233] | 5 (Level 5: growth control rate is above 85%)
COc1nccc(C(=O)Nc2nnnn2C)c1Cl [Compound 1-2061] | 5 (Level 5: growth control rate is above 85%)
Cc1ccc(-c2nccc(C(=O)Nc3nnnn3C)c2Cl)c(F)c1 [Compound 1-69] | 5 (Level 5: growth control rate is above 85%)
C#Cc1c(C(=O)Nc2nnnn2C)ccnc1-c1ccc(F)cc1 [Compound 1-220] | 5 (Level 5: growth control rate is above 85%)
Cn1nnnc1NC(=O)c1ccnc(-c2ccc(F)c(Cl)c2)c1Cl [Compound 1-92] | 5 (Level 5: growth control rate is above 85%)
Cn1cncc1-c1nccc(C(=O)Nc2nnnn2C)c1Cl [Compound 1-234] | 5 (Level 5: growth control rate is above 85%)
Cn1nnnc1NC(=O)c1ccnc(-c2ccc(CBr)cc2)c1Cl [Compound 1-24] | 5 (Level 5: growth control rate is above 85%)
COc1ccc(-c2nccc(C(=O)Nc3nnnn3C)c2Cl)cc1C=O [Compound 1-99] | 5 (Level 5: growth control rate is above 85%)
Cn1nnnc1NC(=O)c1ccnc(-c2cnn(Cc3ccccc3)c2)c1Cl [Compound 1-175] | 5 (Level 5: growth control rate is above 85%)
Cn1nnnc1NC(=O)c1ccnc(-c2ccc(OC3CCCCO3)cc2)c1Cl (stereo not drawn) [Compound 1-51] | 5 (Level 5: growth control rate is above 85%)
Cn1nnnc1NC(=O)c1ccnc(-c2ccc(C#N)c(F)c2)c1Cl [Compound 1-79] | 5 (Level 5: growth control rate is above 85%)
C=Cc1ccc(-c2nccc(C(=O)Nc3nnnn3C)c2Cl)cc1 [Compound 1-1918] | 5 (Level 5: growth control rate is above 85%)
C=Cc1c(C(=O)Nc2nnnn2C)ccnc1-c1ccc(F)cc1 [Compound 1-218] | 5 (Level 5: growth control rate is above 85%)

tested on: Amaranthus retroflexus L.; assay: Weeding effect in post-emergence stage; assay type: in vivo; conditions: active ingredient 2000 g/ha, 3 weeks after application, fresh weight control rate
Text: as §1, §2, §3

Structure (SMILES) | Weeding effect, activity level (growth control rate), Amaranthus retroflexus L.
CCc1ccc(-c2ccc(-c3nccc(C(=O)Nc4nnnn4C)c3Cl)cc2)cc1 [Compound 1-54] | 5 (Level 5: growth control rate is above 85%)
Cn1nnnc1NC(=O)c1ccnc(-c2ccco2)c1Cl [Compound 1-184] | 5 (Level 5: growth control rate is above 85%)
Cn1nnnc1NC(=O)c1ccnc(-c2ccc(S(=O)(=O)N3CCOCC3)cc2)c1Cl [Compound 1-46] | 5 (Level 5: growth control rate is above 85%)
Cn1nnnc1NC(=O)c1ccnc(-c2cc(Cl)nc(Cl)c2)c1Cl [Compound 1-153] | 5 (Level 5: growth control rate is above 85%)
Cn1nnnc1NC(=O)c1ccnc(-c2ccc(F)nc2F)c1Cl [Compound 1-135] | 5 (Level 5: growth control rate is above 85%)
COC(C)c1c(C(=O)Nc2nnnn2C)ccnc1-c1ccc(F)cc1 (stereo not drawn) [Compound 1-215] | 5 (Level 5: growth control rate is above 85%)
Cn1nnnc1NC(=O)c1ccnc(-c2cc(C(F)(F)F)cc(C(F)(F)F)c2)c1Cl [Compound 1-77] | 5 (Level 5: growth control rate is above 85%)
Cn1nnnc1NC(=O)c1ccnc(-c2ncc(F)cn2)c1Cl [Compound 1-164] | 5 (Level 5: growth control rate is above 85%)
Cn1ccnc1-c1nccc(C(=O)Nc2nnnn2C)c1Cl [Compound 1-233] | 5 (Level 5: growth control rate is above 85%)
COc1nccc(C(=O)Nc2nnnn2C)c1Cl [Compound 1-2061] | 5 (Level 5: growth control rate is above 85%)
Cc1ccc(-c2nccc(C(=O)Nc3nnnn3C)c2Cl)c(F)c1 [Compound 1-69] | 5 (Level 5: growth control rate is above 85%)
C#Cc1c(C(=O)Nc2nnnn2C)ccnc1-c1ccc(F)cc1 [Compound 1-220] | 5 (Level 5: growth control rate is above 85%)
Cn1nnnc1NC(=O)c1ccnc(-c2ccc(F)c(Cl)c2)c1Cl [Compound 1-92] | 5 (Level 5: growth control rate is above 85%)
Cn1cncc1-c1nccc(C(=O)Nc2nnnn2C)c1Cl [Compound 1-234] | 5 (Level 5: growth control rate is above 85%)
Cn1nnnc1NC(=O)c1ccnc(-c2ccc(CBr)cc2)c1Cl [Compound 1-24] | 5 (Level 5: growth control rate is above 85%)
COc1ccc(-c2nccc(C(=O)Nc3nnnn3C)c2Cl)cc1C=O [Compound 1-99] | 5 (Level 5: growth control rate is above 85%)
Cn1nnnc1NC(=O)c1ccnc(-c2cnn(Cc3ccccc3)c2)c1Cl [Compound 1-175] | 5 (Level 5: growth control rate is above 85%)
Cn1nnnc1NC(=O)c1ccnc(-c2ccc(OC3CCCCO3)cc2)c1Cl (stereo not drawn) [Compound 1-51] | 5 (Level 5: growth control rate is above 85%)
Cn1nnnc1NC(=O)c1ccnc(-c2ccc(C#N)c(F)c2)c1Cl [Compound 1-79] | 5 (Level 5: growth control rate is above 85%)
C=Cc1ccc(-c2nccc(C(=O)Nc3nnnn3C)c2Cl)cc1 [Compound 1-1918] | 5 (Level 5: growth control rate is above 85%)
C=Cc1c(C(=O)Nc2nnnn2C)ccnc1-c1ccc(F)cc1 [Compound 1-218] | 5 (Level 5: growth control rate is above 85%)

tested on: Chenopodium album; assay: Weeding effect in post-emergence stage; assay type: in vivo; conditions: active ingredient 2000 g/ha, 3 weeks after application, fresh weight control rate
Text: as §1, §2, §3

Structure (SMILES) | Weeding effect, activity level (growth control rate), Chenopodium album
CCc1ccc(-c2ccc(-c3nccc(C(=O)Nc4nnnn4C)c3Cl)cc2)cc1 [Compound 1-54] | 5 (Level 5: growth control rate is above 85%)
Cn1nnnc1NC(=O)c1ccnc(-c2ccco2)c1Cl [Compound 1-184] | 5 (Level 5: growth control rate is above 85%)
Cn1nnnc1NC(=O)c1ccnc(-c2ccc(S(=O)(=O)N3CCOCC3)cc2)c1Cl [Compound 1-46] | 5 (Level 5: growth control rate is above 85%)
Cn1nnnc1NC(=O)c1ccnc(-c2cc(Cl)nc(Cl)c2)c1Cl [Compound 1-153] | 5 (Level 5: growth control rate is above 85%)
Cn1nnnc1NC(=O)c1ccnc(-c2ccc(F)nc2F)c1Cl [Compound 1-135] | 5 (Level 5: growth control rate is above 85%)
COC(C)c1c(C(=O)Nc2nnnn2C)ccnc1-c1ccc(F)cc1 (stereo not drawn) [Compound 1-215] | 5 (Level 5: growth control rate is above 85%)
Cn1nnnc1NC(=O)c1ccnc(-c2cc(C(F)(F)F)cc(C(F)(F)F)c2)c1Cl [Compound 1-77] | 5 (Level 5: growth control rate is above 85%)
Cn1nnnc1NC(=O)c1ccnc(-c2ncc(F)cn2)c1Cl [Compound 1-164] | 5 (Level 5: growth control rate is above 85%)
Cn1ccnc1-c1nccc(C(=O)Nc2nnnn2C)c1Cl [Compound 1-233] | 5 (Level 5: growth control rate is above 85%)
COc1nccc(C(=O)Nc2nnnn2C)c1Cl [Compound 1-2061] | 5 (Level 5: growth control rate is above 85%)
Cc1ccc(-c2nccc(C(=O)Nc3nnnn3C)c2Cl)c(F)c1 [Compound 1-69] | 5 (Level 5: growth control rate is above 85%)
C#Cc1c(C(=O)Nc2nnnn2C)ccnc1-c1ccc(F)cc1 [Compound 1-220] | 5 (Level 5: growth control rate is above 85%)
Cn1nnnc1NC(=O)c1ccnc(-c2ccc(F)c(Cl)c2)c1Cl [Compound 1-92] | 5 (Level 5: growth control rate is above 85%)
Cn1cncc1-c1nccc(C(=O)Nc2nnnn2C)c1Cl [Compound 1-234] | 5 (Level 5: growth control rate is above 85%)
Cn1nnnc1NC(=O)c1ccnc(-c2ccc(CBr)cc2)c1Cl [Compound 1-24] | 5 (Level 5: growth control rate is above 85%)
COc1ccc(-c2nccc(C(=O)Nc3nnnn3C)c2Cl)cc1C=O [Compound 1-99] | 5 (Level 5: growth control rate is above 85%)
Cn1nnnc1NC(=O)c1ccnc(-c2cnn(Cc3ccccc3)c2)c1Cl [Compound 1-175] | 5 (Level 5: growth control rate is above 85%)
Cn1nnnc1NC(=O)c1ccnc(-c2ccc(OC3CCCCO3)cc2)c1Cl (stereo not drawn) [Compound 1-51] | 5 (Level 5: growth control rate is above 85%)
Cn1nnnc1NC(=O)c1ccnc(-c2ccc(C#N)c(F)c2)c1Cl [Compound 1-79] | 5 (Level 5: growth control rate is above 85%)
C=Cc1ccc(-c2nccc(C(=O)Nc3nnnn3C)c2Cl)cc1 [Compound 1-1918] | 5 (Level 5: growth control rate is above 85%)
C=Cc1c(C(=O)Nc2nnnn2C)ccnc1-c1ccc(F)cc1 [Compound 1-218] | 5 (Level 5: growth control rate is above 85%)

tested on: Descurainia sophia; assay: Weeding effect in post-emergence stage; assay type: in vivo; conditions: active ingredient 2000 g/ha, 3 weeks after application, fresh weight control rate
Text: as §1, §2, §3

Structure (SMILES) | Weeding effect, activity level (growth control rate), Descurainia sophia
CCc1ccc(-c2ccc(-c3nccc(C(=O)Nc4nnnn4C)c3Cl)cc2)cc1 [Compound 1-54] | 5 (Level 5: growth control rate is above 85%)
Cn1nnnc1NC(=O)c1ccnc(-c2ccco2)c1Cl [Compound 1-184] | 5 (Level 5: growth control rate is above 85%)
Cn1nnnc1NC(=O)c1ccnc(-c2ccc(S(=O)(=O)N3CCOCC3)cc2)c1Cl [Compound 1-46] | 5 (Level 5: growth control rate is above 85%)
Cn1nnnc1NC(=O)c1ccnc(-c2cc(Cl)nc(Cl)c2)c1Cl [Compound 1-153] | 5 (Level 5: growth control rate is above 85%)
Cn1nnnc1NC(=O)c1ccnc(-c2ccc(F)nc2F)c1Cl [Compound 1-135] | 5 (Level 5: growth control rate is above 85%)
COC(C)c1c(C(=O)Nc2nnnn2C)ccnc1-c1ccc(F)cc1 (stereo not drawn) [Compound 1-215] | 5 (Level 5: growth control rate is above 85%)
Cn1nnnc1NC(=O)c1ccnc(-c2cc(C(F)(F)F)cc(C(F)(F)F)c2)c1Cl [Compound 1-77] | 5 (Level 5: growth control rate is above 85%)
Cn1nnnc1NC(=O)c1ccnc(-c2ncc(F)cn2)c1Cl [Compound 1-164] | 5 (Level 5: growth control rate is above 85%)
Cn1ccnc1-c1nccc(C(=O)Nc2nnnn2C)c1Cl [Compound 1-233] | 5 (Level 5: growth control rate is above 85%)
COc1nccc(C(=O)Nc2nnnn2C)c1Cl [Compound 1-2061] | 5 (Level 5: growth control rate is above 85%)
Cc1ccc(-c2nccc(C(=O)Nc3nnnn3C)c2Cl)c(F)c1 [Compound 1-69] | 5 (Level 5: growth control rate is above 85%)
C#Cc1c(C(=O)Nc2nnnn2C)ccnc1-c1ccc(F)cc1 [Compound 1-220] | 5 (Level 5: growth control rate is above 85%)
Cn1nnnc1NC(=O)c1ccnc(-c2ccc(F)c(Cl)c2)c1Cl [Compound 1-92] | 5 (Level 5: growth control rate is above 85%)
Cn1cncc1-c1nccc(C(=O)Nc2nnnn2C)c1Cl [Compound 1-234] | 5 (Level 5: growth control rate is above 85%)
Cn1nnnc1NC(=O)c1ccnc(-c2ccc(CBr)cc2)c1Cl [Compound 1-24] | 5 (Level 5: growth control rate is above 85%)
COc1ccc(-c2nccc(C(=O)Nc3nnnn3C)c2Cl)cc1C=O [Compound 1-99] | 5 (Level 5: growth control rate is above 85%)
Cn1nnnc1NC(=O)c1ccnc(-c2cnn(Cc3ccccc3)c2)c1Cl [Compound 1-175] | 5 (Level 5: growth control rate is above 85%)
Cn1nnnc1NC(=O)c1ccnc(-c2ccc(OC3CCCCO3)cc2)c1Cl (stereo not drawn) [Compound 1-51] | 5 (Level 5: growth control rate is above 85%)
Cn1nnnc1NC(=O)c1ccnc(-c2ccc(C#N)c(F)c2)c1Cl [Compound 1-79] | 5 (Level 5: growth control rate is above 85%)
C=Cc1ccc(-c2nccc(C(=O)Nc3nnnn3C)c2Cl)cc1 [Compound 1-1918] | 5 (Level 5: growth control rate is above 85%)
C=Cc1c(C(=O)Nc2nnnn2C)ccnc1-c1ccc(F)cc1 [Compound 1-218] | 5 (Level 5: growth control rate is above 85%)
